Source: PubChem BioAssay (NCI)
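Values below derive from 48-hour exposures of cells grown in 96-well plates, with endpoints linearly interpolated between the two concentrations bracketing the appropriate inhibition level. GI50: concentration for 50% inhibition of growth. TGI denotes the concentration required for complete inhibition of growth.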

Key:
Assay in all cases: NCI tumour cell line growth inhibition, 48 h
M14 melanoma = test system: M14 melanoma
MCF7 breast = test system: MCF7 breast
HCT-116 colon = test system: HCT-116 colon
EKVX NSCLC = test system: EKVX NSCLC
HOP-62 NSCLC = test system: HOP-62 NSCLC
HL-60(TB) leukemia = test system: HL-60(TB) leukemia
K-562 leukemia = test system: K-562 leukemia
IGROV1 ovarian = test system: IGROV1 ovarian
SF-539 CNS = test system: SF-539 CNS
HT29 colon = test system: HT29 colon
OVCAR-5 ovarian = test system: OVCAR-5 ovarian
DU-145 prostate = test system: DU-145 prostate
ACHN renal = test system: ACHN renal
PC-3 prostate = test system: PC-3 prostate
MOLT-4 leukemia = test system: MOLT-4 leukemia
UACC-257 melanoma = test system: UACC-257 melanoma
NCI/ADR-RES ovarian = test system: NCI/ADR-RES ovarian
SF-268 CNS = test system: SF-268 CNS
NCI-H226 lung = test system: NCI-H226 lung
SK-MEL-5 melanoma = test system: SK-MEL-5 melanoma
COLO 205 colon = test system: COLO 205 colon
HCT-15 colon = test system: HCT-15 colon
SNB-75 CNS = test system: SNB-75 CNS
SNB-19 CNS = test system: SNB-19 CNS
BT-549 breast = test system: BT-549 breast
NCI-H460 lung = test system: NCI-H460 lung
NCI-H23 lung = test system: NCI-H23 lung
CCRF-CEM leukemia = test system: CCRF-CEM leukemia
SW-620 colon = test system: SW-620 colon
HCC-2998 colon = test system: HCC-2998 colon
LOX IMVI melanoma = test system: LOX IMVI melanoma
RPMI-8226 leukemia = test system: RPMI-8226 leukemia
UACC-62 melanoma = test system: UACC-62 melanoma
A498 renal = test system: A498 renal
SK-MEL-28 melanoma = test system: SK-MEL-28 melanoma
KM12 colon = test system: KM12 colon
HS 578T breast = test system: HS 578T breast
T-47D breast = test system: T-47D breast
TK-10 renal = test system: TK-10 renal
SK-OV-3 ovarian = test system: SK-OV-3 ovarian
MDA-MB-231 breast = test system: MDA-MB-231 breast
UO-31 renal = test system: UO-31 renal
SN12C renal = test system: SN12C renal
MALME-3M melanoma = test system: MALME-3M melanoma
OVCAR-8 ovarian = test system: OVCAR-8 ovarian
SF-295 CNS = test system: SF-295 CNS
786-0 renal = test system: 786-0 renal
MDA-MB-435 = test system: MDA-MB-435
NCI-H522 lung = test system: NCI-H522 lung
CAKI-1 renal = test system: CAKI-1 renal
U251 CNS = test system: U251 CNS
OVCAR-4 ovarian = test system: OVCAR-4 ovarian
SR leukemia = test system: SR leukemia
SK-MEL-2 melanoma = test system: SK-MEL-2 melanoma
A549 NSCLC = test system: A549 NSCLC
RXF 393 renal = test system: RXF 393 renal

Oc1ccc(CSc2nnc(-c3cnccn3)n2-c2ccccc2)c2cccnc12
GI50 (M14 melanoma): 815 nM
GI50 (MCF7 breast): 334 nM
TGI (MCF7 breast): > 100000 nM
GI50 (HCT-116 colon): 370 nM
TGI (HCT-116 colon): > 100000 nM
GI50 (EKVX NSCLC): 1870 nM
TGI (EKVX NSCLC): > 100000 nM
GI50 (HOP-62 NSCLC): 729 nM
TGI (HOP-62 NSCLC): 50800 nM
GI50 (HL-60(TB) leukemia): 594 nM
TGI (HL-60(TB) leukemia): 5090 nM
GI50 (K-562 leukemia): 468 nM
TGI (K-562 leukemia): > 100000 nM
GI50 (IGROV1 ovarian): 923 nM
TGI (IGROV1 ovarian): > 100000 nM
GI50 (SF-539 CNS): 919 nM
TGI (SF-539 CNS): > 37100 nM
GI50 (HT29 colon): 3990 nM
TGI (HT29 colon): > 100000 nM
GI50 (OVCAR-5 ovarian): 3830 nM
TGI (OVCAR-5 ovarian): > 100000 nM
GI50 (DU-145 prostate): 669 nM
TGI (DU-145 prostate): > 100000 nM
GI50 (ACHN renal): 641 nM
TGI (ACHN renal): > 40900 nM
GI50 (PC-3 prostate): 586 nM
TGI (PC-3 prostate): > 100000 nM
GI50 (MOLT-4 leukemia): 707 nM
TGI (MOLT-4 leukemia): > 100000 nM
GI50 (UACC-257 melanoma): 2160 nM
TGI (UACC-257 melanoma): > 28700 nM
GI50 (NCI/ADR-RES ovarian): 309 nM
TGI (NCI/ADR-RES ovarian): > 34800 nM
GI50 (SF-268 CNS): 782 nM
TGI (SF-268 CNS): > 100000 nM
GI50 (NCI-H226 lung): 3780 nM
TGI (NCI-H226 lung): > 100000 nM
GI50 (SK-MEL-5 melanoma): 638 nM
GI50 (COLO 205 colon): 11700 nM
TGI (COLO 205 colon): > 100000 nM
GI50 (HCT-15 colon): 408 nM
TGI (HCT-15 colon): > 100000 nM
GI50 (SNB-75 CNS): 707 nM
TGI (SNB-75 CNS): > 62300 nM
GI50 (SNB-19 CNS): 522 nM
TGI (SNB-19 CNS): > 100000 nM
GI50 (BT-549 breast): 736 nM
TGI (BT-549 breast): > 49600 nM
GI50 (NCI-H460 lung): 412 nM
TGI (NCI-H460 lung): 16400 nM
GI50 (NCI-H23 lung): 496 nM
TGI (NCI-H23 lung): > 61000 nM
GI50 (CCRF-CEM leukemia): 563 nM
TGI (CCRF-CEM leukemia): > 100000 nM
GI50 (SW-620 colon): 624 nM
TGI (SW-620 colon): > 100000 nM
GI50 (HCC-2998 colon): 2900 nM
TGI (HCC-2998 colon): > 100000 nM
GI50 (LOX IMVI melanoma): 559 nM
TGI (LOX IMVI melanoma): 13400 nM
GI50 (RPMI-8226 leukemia): 460 nM
TGI (RPMI-8226 leukemia): > 100000 nM
GI50 (UACC-62 melanoma): 1180 nM
TGI (UACC-62 melanoma): 6730 nM
GI50 (A498 renal): 2600 nM
TGI (A498 renal): 10100 nM
GI50 (SK-MEL-28 melanoma): 2070 nM
TGI (SK-MEL-28 melanoma): > 100000 nM
GI50 (KM12 colon): 1450 nM
TGI (KM12 colon): > 100000 nM
GI50 (HS 578T breast): 522 nM
TGI (HS 578T breast): > 100000 nM
GI50 (T-47D breast): 1130 nM
TGI (T-47D breast): > 100000 nM
GI50 (TK-10 renal): 3230 nM
TGI (TK-10 renal): > 100000 nM
GI50 (SK-OV-3 ovarian): 1280 nM
TGI (SK-OV-3 ovarian): 18200 nM
GI50 (MDA-MB-231 breast): 1280 nM
TGI (MDA-MB-231 breast): > 86500 nM
GI50 (UO-31 renal): 458 nM
TGI (UO-31 renal): 15300 nM
GI50 (SN12C renal): 392 nM
TGI (SN12C renal): > 100000 nM
GI50 (MALME-3M melanoma): 2020 nM
TGI (MALME-3M melanoma): > 100000 nM
GI50 (OVCAR-8 ovarian): 519 nM
TGI (OVCAR-8 ovarian): > 100000 nM
GI50 (SF-295 CNS): 1000 nM
TGI (SF-295 CNS): > 59600 nM
GI50 (786-0 renal): 3700 nM
TGI (786-0 renal): 34000 nM
GI50 (MDA-MB-435): 571 nM
TGI (MDA-MB-435): > 100000 nM
GI50 (NCI-H522 lung): 353 nM
TGI (NCI-H522 lung): > 100000 nM
GI50 (CAKI-1 renal): 1980 nM
TGI (CAKI-1 renal): > 92300 nM
GI50 (U251 CNS): 470 nM
TGI (U251 CNS): > 100000 nM
GI50 (OVCAR-4 ovarian): 3650 nM
TGI (OVCAR-4 ovarian): > 100000 nM
GI50 (SR leukemia): 409 nM
TGI (SR leukemia): > 100000 nM
GI50 (SK-MEL-2 melanoma): 566 nM
GI50 (A549 NSCLC): 1180 nM
TGI (A549 NSCLC): > 100000 nM
GI50 (RXF 393 renal): 2590 nM
TGI (RXF 393 renal): > 58200 nM
